In brackets after ≈: the same amount, converted by molar mass.
Key:
Assay in all cases: Heart Infusion Agar Dilution Method, antimicrobial activity
Type in all cases: cell-based
[1] = system: Pseudomonas aeruginosa #1
Description: (§1) Heart Infusion Agar Dilution Method (pH 7.2) is used.
as §1

[2] = system: Staphylococcus aureus 209-P; details: pH 7.2, Example 6
Description: (§2) Antimicrobial activities of the compound obtained in Example 1 are as follows. Heart Infusion Agar Dilution Method (pH 7.2) is used.
(§3) Antimicrobial activities of the compound obtained in Example 4 and 5 are as follows. Heart Infusion Agar Dilution Method (pH 7.2) is used. Cefazolin is used as a control.

[3] = system: Staphylococcus aureus Smith; details: pH 7.2, Example 6
Description: as §2, §3

Proteus rettgeri KY 4289 = details: Providencia rettgeri, KY4289; Proteus retteri KY 4289; pH 7.2; Example 6
Description: as §2, §3

Proteus vulgaris 6897 = details: pH 7.2, Example 6
Description: as §2, §3

Pseudomonas putida 264 = details: pH 7.2, Example 6
Description: as §2, §3

[4] = system: Staphylococcus epidermidis; details: pH 7.2, Example 6
Description: as §2, §3

[5] = system: Pseudomonas aeruginosa 145; details: pH 7.2, Example 6
Description: as §2, §3

[6] = system: Escherichia coli GN2411-5; details: pH 7.2, Example 6
Description: as §2, §3

Proteus morganii KY 4298 = details: Morganella morganii, KY4298, pH 7.2, Example 6
Description: as §2, §3

Escherichia coli Juhl = details: pH 7.2, Example 6
Description: as §1, §1

Escherichia coli NIHJC-2 = details: NIHJC2, pH 7.2, Example 6
Description: as §1, §1

Serratia marcescens T-55 = details: T55, pH 7.2, Example 6
Description: as §1, §1

Serratia marcescens T-26 = details: T26, pH 7.2, Example 6
Description: as §1, §1

Proteus mirabilis 1287 = details: pH 7.2, Example 6
Description: as §1, §1

[7] = system: Klebsiella pneumoniae 8045; details: pH 7.2, Example 6
Description: as §1, §1

[8] = system: Klebsiella pneumoniae Y-60; details: Y60, pH 7.2, Example 6
Description: as §1, §1

| SMILES | MIC ([1]; pH 7.2) [µg/mL] | MIC [2] [µg/mL] | MIC [3] [µg/mL] | MIC (Proteus rettgeri KY 4289) [µg/mL] | MIC (Proteus vulgaris 6897) [µg/mL] | MIC (Pseudomonas putida 264) [µg/mL] | MIC [4] [µg/mL] | MIC [5] [µg/mL] | MIC [6] [µg/mL] | MIC (Proteus morganii KY 4298) [µg/mL] | MIC (Escherichia coli Juhl) [µg/mL] | MIC (Escherichia coli NIHJC-2) [µg/mL] | MIC ([1]; pH 7.2, Example 6) [µg/mL] | MIC (Serratia marcescens T-55) [µg/mL] | MIC (Serratia marcescens T-26) [µg/mL] | MIC (Proteus mirabilis 1287) [µg/mL] | MIC [7] [µg/mL] | MIC [8] [µg/mL] |
| --- | --- | --- | --- | --- | --- | --- | --- | --- | --- | --- | --- | --- | --- | --- | --- | --- | --- | --- |
| CO/N=C(\C(=O)N[C@@H]1C(=O)N2C(C(=O)O)=C[C@@H](O)C[C@H]12)c1csc(N)n1 [A, (4S, 6R, 7S)-7-[2-(2-amino-4-thiazolyl)-2-syn-methoxyiminoacetamido]-4-hydroxy-1-azabicyclo[4,2,0] oct-2-en-8-on-2-carboxylic acid] | 0.73 (≈ 1.91 µM) |  |  |  |  |  |  |  |  |  |  |  |  |  |  |  |  |  |
| Cc1nnc(SCC2=C(C(=O)O)N3C(=O)[C@@H](NC(=O)Cn4cnnn4)[C@H]3SC2)s1 [Cefazolin, reference compound] |  | 0.05 (≈ 0.11 µM) | 0.2 (≈ 0.44 µM) | 12.5 (≈ 27.5 µM) | 50 (≈ 110 µM) | 50 (≈ 110 µM) |  |  |  |  |  |  |  |  |  |  |  |  |
| CC(C)(O/N=C(\C(=O)N[C@@H]1C(=O)N2C(C(=O)O)=C[C@@H](O)C[C@H]12)c1csc(N)n1)C(=O)O [Example 4, (4S, 6R, 7S)-7-[2-(2-amino-4-thiazolyl)-2-syn-(2-carboxyprop-2-oxyimino)acetamido]-4-hydroxy-1-azabicyclo[4,2,0]oct-2-en-8-on-2-carboxylic acid] |  | > 100 | > 100 | ≤ 0.01 | ≤ 0.01 | ≤ 0.01 | > 100 | 3.12 (≈ 6.88 µM) | 0.2 (≈ 0.441 µM) | 0.1 (≈ 0.221 µM) | 0.4 (≈ 0.882 µM) | 0.78 (≈ 1.72 µM) | 0.78 (≈ 1.72 µM) | 0.4 (≈ 0.882 µM) | 0.78 (≈ 1.72 µM) | 0.02 (≈ 0.0441 µM) | 0.2 (≈ 0.441 µM) | 0.2 (≈ 0.441 µM) |
| CO/N=C(\C(=O)N[C@@H]1C(=O)N2C(C(=O)O)=C[C@@H](O)C[C@H]12)c1nc(N)sc1Br [Example 5, (4S, 6R, 7S)-7-[2-(2-amino-5-bromo-4-thiazolyl)-2-syn-methoxyiminoacetamido]-4-hydroxy-1-azabicyclo[4,2,0]oct-2-en-8-on-2-carboxylic acid] |  | 50 (≈ 109 µM) | 50 (≈ 109 µM) | ≤ 0.01 | 0.2 (≈ 0.435 µM) | 0.2 (≈ 0.435 µM) | 100 (≈ 217 µM) | 25 (≈ 54.3 µM) | 0.78 (≈ 1.69 µM) | 1.56 (≈ 3.39 µM) | 3.12 (≈ 6.78 µM) | 3.12 (≈ 6.78 µM) |  |  |  | 1.56 (≈ 3.39 µM) | 0.78 (≈ 1.69 µM) | 1.56 (≈ 3.39 µM) |

From patent US4663450A, “Optically active cephalosporin analogs” (Kyowa Hakko Kogyo Co., Ltd., priority 1979, dated 1987)
